In the test the test system is STAT1 (phosphorylated at Tyr701) in NCI-H1373 cells. The test is described as follows: Phospho-STAT1 (Tyr701) LANCE Ultra TR-FRET detection assay. The following applies: Homo sapiens, NCI-H1373, 48 h, induction of pSTAT1 in NCI-H1373 cells, 48 hours incubation; normalized to 10 uM positive control and DMSO; 4-parameter fit; read-out: NH1373 pSTAT1 EC50. Format: cell-based. As for the experimental part: Phospho-STAT1 (Tyr701 LANCE Ultra TR-FRET Detection Assay
LANCE Ultra phospho-STAT1 (Tyr701) kits are designed for the detection of phosphorylated STAT1 in cell lysates using a simple, homogeneous LANCE Ultra sandwich assay (Cat. #TRF4028M). This assay is intended for assessing compound induction of endogenous levels of cellular STAT1 (phosphorylated at Tyr701) in NCI-H1373 cells. The NCI-H1373 cells are cultured in RPMI 1640 media containing 10% heat inactivated FBS, GlutaMAX, 1% Penicillin-Streptomycin. An Echo acoustic liquid handler is used to transfer 60 nanoliters of compound dilutions using the Echo Qualified, 384-well polypropylene microplate clear flat bottom source plates into a Greiner (#781080) cell culture microplate. NCI-H1373 cells are seeded into these compound-spotted culture plates at 30,000 cells/well in a 60 uL volume in growth media. The plates are incubated in a 5% CO2 humidified incubator at 37° C. for 48 hours. […] Briefly, […] of supplemented lysis buffer is added to each well and allowed to shake for 1 hour at 400 rpm. Next, 5 ul of remixed antibody solutions (vol/vol) prepared in detection buffer are added to each well and allowed to incubate at room temperature overnight. After spinning the plate down at 300 rpm for 1 min, the plate is read on an EnVision plate reader set up for Eu3+ Cryptate and fluorescence emission is measured at two different wavelengths (665 nm and 620 nm). The HTRF ratio is then calculated ([…]) for each well to determine the amount of pSTAT1 in the cell lysate, and the data is then normalized to 10 uM (S)-5-((1-(3-oxo-3-(4-(5-(trifluoromethyl)pyrimidin-2-yl)piperazin-1-yl)propoxy)propan-2-yl)amino)-4-(trifluoromethyl)pyridazin-3(2H)-one positive and DMSO negative controls. The values were then plotted as a function of compound concentration and a 4-parameter fit was applied to derive the EC50 values.

Our source for the EC50 values is patent publication US20250100998A1, “PARP7 INHIBITORS” (Gilead Sciences, Inc., priority 2023, published 2025).

Each structure is given as a SMILES string.

With `O=c1[nH]ncc(N[C@H]2CCC[C@@H](Cn3ccc4cc(-c5ncc(OCC(F)F)cn5)c(F)cc4c3=O)C2)c1C(F)(F)F` [Example 14, 6-(5-(2,2-difluoroethoxy)pyrimidin-2-yl)-7-fluoro-2-(((1R,3S)-3-((6-oxo-5-(trifluoromethyl)-1,6-dihydropyridazin-4-yl)amino)cyclohexyl)methyl)isoquinolin-1(2H)-one], the EC50 is 44.2 nM.
`CC(C)(O)c1cnc(-c2cc3ccn(C[C@@H]4CCC[C@H](Oc5cn[nH]c(=O)c5C(F)(F)F)C4)c(=O)c3cc2F)nc1` [Example 57, 7-fluoro-6-(5-(2-hydroxypropan-2-yl)pyrimidin-2-yl)-2-(((1R,3S)-3-((6-oxo-5-(trifluoromethyl)-1,6-dihydropyridazin-4-yl)oxy)cyclohexyl)methyl)isoquinolin-1(2H)-one]: the EC50 worked out at 1.82 nM.
Take `O=C1c2cc(F)c(-c3ncc(C(F)(F)F)cn3)cc2CCN1C[C@@H]1CCC[C@H](Nc2cn[nH]c(=O)c2C(F)(F)F)C1` [Example 69, 7-fluoro-2-[[(1R,3S)-3-[[6-oxo-5-(trifluoromethyl)-1H-pyridazin-4-yl]amino]cyclohexyl]methyl]-6-[5-(trifluoromethyl)pyrimidin-2-yl]-3,4-dihydroisoquinolin-1-one]: the EC50 was determined as 4.56 nM.
The same measure for `O=c1[nH]ncc(N[C@H]2CCC[C@@H](Cn3ccc4cc(-c5ncc(OC(F)F)cn5)c(F)cc4c3=O)C2)c1C(F)(F)F` [Example 5, 6-(5-(difluoromethoxy)pyrimidin-2-yl)-7-fluoro-2-(((1R,3S)-3-((6-oxo-5-(trifluoromethyl)-1,6-dihydropyridazin-4-yl)amino)cyclohexyl)methyl)isoquinolin-1(2H)-one]: 4.74 nM; for `O=c1[nH]ncc(N[C@H]2CCC[C@@H](Cn3ccc4cc(-c5ncc6c(n5)NCCO6)c(F)cc4c3=O)C2)c1C(F)(F)F` [Example 9, 6-(7,8-dihydro-6H-pyrimido[5,4-b][1,4]oxazin-2-yl)-7-fluoro-2-(((1R,3S)-3-((6-oxo-5-(trifluoromethyl)-1,6-dihydropyridazin-4-yl)amino)cyclohexyl)methyl)isoquinolin-1(2H)-one]: 6.39 nM.
The same measure for `O=c1[nH]ncc(N[C@H]2CCC[C@@H](Cn3ccc4cc(-c5ncc(-n6cccn6)cn5)c(F)cc4c3=O)C2)c1C(F)(F)F` [Example 1, 7-fluoro-2-[[(1R,3S)-3-[[6-oxo-5-(trifluoromethyl)-1H-pyridazin-4-yl]amino]cyclohexyl]methyl]-6-(5-pyrazol-1-ylpyrimidin-2-yl)isoquinolin-1-one]: 6.54 nM; for `CS(=O)(=O)c1cnc(-c2cc3c(F)cn(C[C@@H]4CCC[C@H](Nc5cn[nH]c(=O)c5C(F)(F)F)C4)c(=O)c3cc2F)nc1` [Example 40, 4,7-difluoro-6-(5-methylsulfonylpyrimidin-2-yl)-2-[[(1R,3S)-3-[[6-oxo-5-(trifluoromethyl)-1H-pyridazin-4-yl]amino]cyclohexyl]methyl]isoquinolin-1-one]: 16.3 nM.
In the case of `O=c1[nH]ncc(N[C@H]2CCC[C@@H](Cn3ccc4cc(-c5nc6ccc(F)cn6n5)c(F)c(F)c4c3=O)C2)c1C(F)(F)F` [Example 17, 7,8-difluoro-6-(6-fluoro-[1,2,4]triazolo[1,5-a]pyridin-2-yl)-2-(((1R,3S)-3-((6-oxo-5-(trifluoromethyl)-1,6-dihydropyridazin-4-yl)amino)cyclohexyl)methyl)isoquinolin-1(2H)-one], the concentration for a half-maximal effect (EC50) came to 1.16 nM.
As to `[2H]C([2H])([2H])Oc1cnc(-c2cc3c(F)cn(C[C@@H]4CCC[C@H](Nc5cn[nH]c(=O)c5C(F)(F)F)C4)c(=O)c3cc2F)nc1` [Example 45, 4,7-difluoro-2-[[(1R,3S)-3-[[6-oxo-5-(trifluoromethyl)-1H-pyridazin-4-yl]amino]cyclohexyl]methyl]-6-[5-(trideuteriomethoxy)pyrimidin-2-yl]isoquinolin-1-one], the EC50 was 10.5 nM.
As for `CC(C)(O)c1cnc(-c2cc3c(F)cn(C[C@@H]4CCC[C@H](Nc5cn[nH]c(=O)c5C(F)(F)F)C4)c(=O)c3cc2F)nc1` [Example 39], the 50% effective concentration (EC50) came to 4.2 nM.
To `[2H]C([2H])([2H])Oc1cnc(-c2cc3c(F)cn(C[C@@H]4CCC[C@H](Oc5cn[nH]c(=O)c5C(F)(F)F)C4)c(=O)c3c(F)c2F)nc1` [Example 51, 4,7,8-trifluoro-6-(5-(methoxy-d3)pyrimidin-2-yl)-2-(((1R,3S)-3-((6-oxo-5-(trifluoromethyl)-1,6-dihydropyridazin-4-yl)oxy)cyclohexyl)methyl)isoquinolin-1(2H)-one] belongs 1.22 nM; to `COc1nc(-c2cc3ccn(C[C@@H]4CCC[C@H](Nc5cn[nH]c(=O)c5C(F)(F)F)C4)c(=O)c3c(F)c2F)ncc1C#N` [Example 22, 2-(7,8-difluoro-1-oxo-2-(((1R,3S)-3-((6-oxo-5-(trifluoromethyl)-1,6-dihydropyridazin-4-yl)amino)cyclohexyl)methyl)-1,2-dihydroisoquinolin-6-yl)-4-methoxypyrimidine-5-carbonitrile], 2.42 nM; to `CC(C)(O)c1cnc(-c2cc3ccn(C[C@@H]4CCC[C@H](Oc5cn[nH]c(=O)c5C(F)(F)F)C4)c(=O)c3c(F)c2F)nc1` [Example 55, 7,8-difluoro-6-(5-(2-hydroxypropan-2-yl)pyrimidin-2-yl)-2-(((1R,3S)-3-((6-oxo-5-(trifluoromethyl)-1,6-dihydropyridazin-4-yl)oxy)cyclohexyl)methyl)isoquinolin-1(2H)-one], 1.56 nM.
As to `COc1cnc(-c2cc3c(F)cn(C[C@@H]4CCC[C@H](Nc5cn[nH]c(=O)c5C(F)(F)F)C4)c(=O)c3c(F)c2F)nc1` [Example 35, 4,7,8-trifluoro-6-(5-methoxypyrimidin-2-yl)-2-(((1R,3S)-3-((6-oxo-5-(trifluoromethyl)-1,6-dihydropyridazin-4-yl)amino)cyclohexyl)methyl)isoquinolin-1(2H)-one], the EC50 was 1.45 nM.
Consider `[2H]C([2H])([2H])Oc1cnc(-c2cc3ncn(C[C@@H]4CCC[C@H](Nc5cn[nH]c(=O)c5C(F)(F)F)C4)c(=O)c3cc2F)nc1` [Example 26, 6-fluoro-7-(5-(methoxy-d3)pyrimidin-2-yl)-3-(((1R,3S)-3-((6-oxo-5-(trifluoromethyl)-1,6-dihydropyridazin-4-yl)amino)cyclohexyl)methyl)quinazolin-4(3H)-one], for which the EC50 is 5.63 nM.
Turning to `O=c1[nH]ncc(O[C@H]2CCC[C@@H](Cn3cc(F)c4cc(-c5ncc(C(F)F)cn5)c(F)c(F)c4c3=O)C2)c1C(F)(F)F` [Example 52, 6-(5-(difluoromethyl)pyrimidin-2-yl)-4,7,8-trifluoro-2-(((1R,3S)-3-((6-oxo-5-(trifluoromethyl)-1,6-dihydropyridazin-4-yl)oxy)cyclohexyl)methyl)isoquinolin-1(2H)-one], the half-maximal effective concentration (EC50) was found to be 1.22 nM.
As for `O=c1[nH]ncc(N[C@H]2C[C@@H](O)C[C@@H](Cn3ccc4cc(-c5ncc(C(F)(F)F)cn5)c(F)cc4c3=O)C2)c1C(F)(F)F` [Example 62, 7-fluoro-2-[[(1S,3S,5R)-3-hydroxy-5-[[6-oxo-5-(trifluoromethyl)-1H-pyridazin-4-yl]amino]cyclohexyl]methyl]-6-[5-(trifluoromethyl)pyrimidin-2-yl]isoquinolin-1-one], the EC50 amounted to 90 nM.
With `Cc1nc(-c2cc3ccn(C[C@@H]4CCC[C@H](Nc5cn[nH]c(=O)c5C(F)(F)F)C4)c(=O)c3cc2F)ncc1Cl` [Example 7, 6-(5-chloro-4-methylpyrimidin-2-yl)-7-fluoro-2-(((1R,3S)-3-((6-oxo-5-(trifluoromethyl)-1,6-dihydropyridazin-4-yl)amino)cyclohexyl)methyl)isoquinolin-1(2H)-one], the concentration for a half-maximal effect (EC50) was 6.03 nM.
In the case of `O=c1[nH]ncc(N[C@H]2CCC[C@@H](Cn3ccc4cc(-c5ccc(C(F)F)cn5)c(F)c(F)c4c3=O)C2)c1C(F)(F)F` [Example 19, 6-(5-(difluoromethyl)pyridin-2-yl)-7,8-difluoro-2-(((1R,3S)-3-((6-oxo-5-(trifluoromethyl)-1,6-dihydropyridazin-4-yl)amino)cyclohexyl)methyl)isoquinolin-1(2H)-one], the concentration for a half-maximal effect (EC50) was found to be 4.78 nM.
Consider `CC(F)(F)c1cnc(-c2cc3ccn(C[C@@H]4CCC[C@H](Nc5cn[nH]c(=O)c5C(F)(F)F)C4)c(=O)c3cc2F)nc1` [Example 4, 6-(5-(1,1-difluoroethyl)pyrimidin-2-yl)-7-fluoro-2-(((1R,3S)-3-((6-oxo-5-(trifluoromethyl)-1,6-dihydropyridazin-4-yl)amino)cyclohexyl)methyl)isoquinolin-1(2H)-one], for which the EC50 amounted to 2.26 nM.
